According to US9168259B2 (GRÜNENTHAL GMBH, priority 2010, dated 2015):

Target: T1, KCNQ2/3 channels (Homo sapiens, UniProt O43525+O43526)
T1 construct: expressed in transfected cells
Assay: Fluorescence assay using a voltage sensitive dye (fluorimetry)
Assay type: cell-based
Conditions: CHO-K1 cells expressing KCNQ2/3; for Emax: CHO-K1, plateau effect relative to saturated retigabine (50 μM) = 100%, negative values = antagonistic, read-out: Fluorimetry % efficacy (retigabine = 100%); for EC50: IC50 where % efficacy is negative, read-out: Fluorimetry EC50/IC50
Source text: Method I. Fluorescence Assay Using a Voltage Sensitive Dye (Fluorimetry)
These voltage-sensitive dyes are fluorescent dyes and, therefore, are forming the link between cell potential influenced by KCNQ modulation and fluorescence intensity. A KCNQ agonist leads to an opening of the channel, potassium and dye efflux, a following hyperpolarization and a reduction of the inner fluorescence intensity in a kinetic protocol. If applying an ion jump by KCl depolarization, KCNQ agonists increase the ΔF/F value. An antagonist performs vice versa, respectively.
Therefore, ‘fluorimetry EC50’ is a measure for the compound potency. The compound efficacy is mirrored by ‘fluorimetry % efficacy’ (‘% Efficacy’) and refers to the maximum response achievable by the test compound, i.e. the plateau effect. This drug's plateau effect is related to the plateau effect, which can be achieved by applying a saturated concentration of a reference compound, e.g. Retigabine (50 μM), in independent wells of the same experimental plate or series.
[…] CHO-K1 cells expressing KCNQ2/3 channels are cultivated adherently at 37° C., 5% CO2 and 95% humidity in cell culture bottles (e.g. 80 cm^2 TC flasks, Nunc) with DMEM-high glucose (Sigma Aldrich, D7777) including 10% FCS (PAN Biotech, e.g. 3302-P270521) or alternatively MEM Alpha Medium (1×, liquid, Invitrogen, #22571), 10% fetal calf serum (FCS) (Invitrogen, #10270-106, heat-inactivated) and the necessary selection antibiotics.
The cell number is determined using a CASY™ cell counter (TCC, Schärfe System). Depending on the optimal density for each individual cell line, 20,000-30,000 cells/well/100 μl are seeded onto 96-well Corning™ CellBIND™ assay plates (Flat Clear Bottom Black Polystyrene Microplates, #3340). Freshly seeded cells are then left to settle for one hour at room temperature, followed by incubation for 24 hours at 37° C., 5% CO2 and 95% humidity.
The voltage-sensitive fluorescent dye from the Membrane Potential Assay Kit (Red™ Bulk format part R8123 for FLIPR, MDS Analytical Technologies™) is prepared by dissolving the contents of one vessel Membrane Potential Assay Kit Red Component A in 200 ml of extracellular buffer (ES buffer, 120 mM NaCl, 1 mM KCl, 10 mM HEPES, 2 mM CaCl2, 2 mM MgCl2, 10 mM glucose; pH 7.4). After removal of the nutrient medium, the cells are washed once with 200 μl of ES buffer, then loaded for 45 min at room temperature in 100 μl of dye solution in the dark.
Fluorescence measurements are carried out in a BMG Labtech FLUOstar™, BMG Labtech NOVOstar™ or BMG Labtech POLARstar™ instrument (525 nm excitation, 560 nm emission, Bottom Read mode). After incubation with the dye, 50 μl of the test substances in the desired concentrations, or 50 μl of ES buffer for control purposes, are applied to the wells of the assay plate and incubated for 30 min at room temperature while being shielded from light. The fluorescence intensity of the dye is then measured for 5 min and the fluorescence value F1 of each well is thus determined at a given, constant time. 15 μl of a KCl solution are then added to each well (final concentration of potassium ions 92 mM). The change in fluorescence intensity is subsequently monitored until all the relevant values have been obtained (mainly 5-30 min). At a given time post KCl application, a fluorescence value F2 is determined, in this case at the time of the fluorescence peak.
For calculation, the fluorescence intensity F2 is corrected for the fluorescence intensity F1, and the activity (ΔF/F) of the target compound on the potassium channel is determined as follows:
In order to determine whether a substance has agonistic activity,
[formula] can be related to
[formula] of control wells.
[formula] is determined by adding to the well only the buffer solution instead of the test substance, determining the value F1K of the fluorescence intensity, adding the potassium ions as described above, and measuring a value F2K of the fluorescence intensity.

T1 sequence (O43526 whole entry): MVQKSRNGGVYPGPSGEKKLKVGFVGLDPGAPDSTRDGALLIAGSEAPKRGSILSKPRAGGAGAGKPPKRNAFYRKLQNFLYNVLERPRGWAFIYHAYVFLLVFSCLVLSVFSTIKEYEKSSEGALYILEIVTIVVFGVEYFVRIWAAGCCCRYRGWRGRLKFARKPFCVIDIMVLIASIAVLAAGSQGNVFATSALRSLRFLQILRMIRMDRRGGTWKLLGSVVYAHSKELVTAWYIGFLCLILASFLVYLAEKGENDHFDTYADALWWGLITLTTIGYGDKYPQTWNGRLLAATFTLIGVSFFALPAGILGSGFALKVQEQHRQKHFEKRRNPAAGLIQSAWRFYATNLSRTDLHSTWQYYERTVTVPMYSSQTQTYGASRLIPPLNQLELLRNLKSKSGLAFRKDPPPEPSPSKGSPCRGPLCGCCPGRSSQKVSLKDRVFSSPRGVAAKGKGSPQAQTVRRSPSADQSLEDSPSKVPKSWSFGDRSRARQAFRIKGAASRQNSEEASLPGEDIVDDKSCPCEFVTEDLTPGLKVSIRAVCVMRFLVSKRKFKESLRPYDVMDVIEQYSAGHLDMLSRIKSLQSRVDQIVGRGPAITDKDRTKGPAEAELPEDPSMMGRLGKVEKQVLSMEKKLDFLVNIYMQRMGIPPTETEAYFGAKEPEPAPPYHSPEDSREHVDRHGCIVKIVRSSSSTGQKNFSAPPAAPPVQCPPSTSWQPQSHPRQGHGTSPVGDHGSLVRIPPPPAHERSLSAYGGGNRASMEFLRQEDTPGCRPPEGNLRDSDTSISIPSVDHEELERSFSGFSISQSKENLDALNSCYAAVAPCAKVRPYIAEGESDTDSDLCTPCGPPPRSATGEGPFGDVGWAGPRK
T1 sequence (O43525 whole entry): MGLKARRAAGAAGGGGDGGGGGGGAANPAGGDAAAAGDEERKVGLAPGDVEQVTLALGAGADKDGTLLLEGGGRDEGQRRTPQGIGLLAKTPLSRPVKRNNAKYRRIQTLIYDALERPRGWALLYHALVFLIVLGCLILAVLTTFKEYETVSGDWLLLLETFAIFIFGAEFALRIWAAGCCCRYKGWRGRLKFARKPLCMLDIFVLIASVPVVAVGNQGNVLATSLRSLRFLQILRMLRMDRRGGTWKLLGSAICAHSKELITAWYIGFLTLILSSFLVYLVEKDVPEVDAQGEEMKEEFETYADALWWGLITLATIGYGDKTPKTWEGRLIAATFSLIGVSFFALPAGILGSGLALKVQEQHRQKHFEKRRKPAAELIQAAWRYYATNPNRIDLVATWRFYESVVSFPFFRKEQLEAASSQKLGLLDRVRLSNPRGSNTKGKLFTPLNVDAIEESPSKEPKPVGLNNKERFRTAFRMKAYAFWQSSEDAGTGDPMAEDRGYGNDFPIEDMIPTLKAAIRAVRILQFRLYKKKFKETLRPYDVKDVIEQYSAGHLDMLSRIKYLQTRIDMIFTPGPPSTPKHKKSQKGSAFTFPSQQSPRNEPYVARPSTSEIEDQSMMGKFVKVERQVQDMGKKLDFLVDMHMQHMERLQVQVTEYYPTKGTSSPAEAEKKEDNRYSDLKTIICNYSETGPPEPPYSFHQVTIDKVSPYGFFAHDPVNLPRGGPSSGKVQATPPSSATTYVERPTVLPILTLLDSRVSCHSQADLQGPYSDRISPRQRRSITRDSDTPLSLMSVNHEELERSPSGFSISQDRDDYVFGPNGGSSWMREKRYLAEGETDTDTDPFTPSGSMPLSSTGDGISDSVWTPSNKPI

| Compound | Emax | EC50 |
| --- | --- | --- |
| CCCc1nc(N2CCOCC2)cc(C)c1C(=O)NCc1ccc(F)cc1 [Example 29, N-[(4-Fluorophenyl)-methyl]-4-methyl-6-morpholin-4-yl-2-propyl-pyridine-3-carboxylic acid amide] | 185% | 236 nM |
| CCSc1nc(N2CCC(OC)C2)cc(C)c1C(=O)NCc1cccc(F)c1 (stereo not shown) [Example 30, 2-Ethylsulfanyl-N-[(3-fluorophenyl)-methyl]-6-(3-methoxy-pyrrolidin-1-yl)-4-methyl-pyridine-3-carboxylic acid amide] | 144% | 1320 nM |
| CCSc1nc(N2CCN(C)CC2)cc(C)c1C(=O)NCc1cccc(F)c1 [Example 31, 2-Ethylsulfanyl-N-[(3-fluorophenyl)-methyl]-4-methyl-6-(4-methyl-piperazin-1-yl)-pyridine-3-carboxylic acid amide] | 23% |  |
| CCSc1nc(N2CCCCC2)cc(C)c1C(=O)NCc1cccc(F)c1 [Example 32, 2-Ethylsulfanyl-N-[(3-fluorophenyl)-methyl]-4-methyl-6-piperidin-1-yl-pyridine-3-carboxylic acid amide] | 166% | 132 nM |
| CCSc1nc(N(C)C)cc(C)c1C(=O)NCc1cccc(F)c1 [Example 33, 6-Dimethylamino-2-ethylsulfanyl-N-[(3-fluorophenyl)-methyl]-4-methyl-pyridine-3-carboxylic acid amide] | 110% | 639 nM |
| CCSc1nc(NC)cc(C)c1C(=O)NCc1cccc(F)c1 [Example 34, 2-Ethylsulfanyl-N-[(3-fluorophenyl)-methyl]-4-methyl-6-methylamino-pyridine-3-carboxylic acid amide] | 37% | 1830 nM |
| CCSc1nc(N(C)CCOC)cc(C)c1C(=O)NCc1cccc(F)c1 [Example 35, 2-Ethylsulfanyl-N-[(3-fluorophenyl)-methyl]-6-(2-methoxy-ethyl-methyl-amino)-4-methyl-pyridine-3-carboxylic acid amide] | 153% | 635 nM |
| CCSc1nc(NCCOC)cc(C)c1C(=O)NCc1cccc(F)c1 [Example 36, 2-Ethylsulfanyl-N-[(3-fluorophenyl)-methyl]-6-(2-methoxy-ethylamino)-4-methyl-pyridine-3-carboxylic acid amide] | 125% | 6000 nM |
| Cc1cc(N2CCOCC2)nc(SC(C)C)c1C(=O)NCc1cccc(F)c1 [Example 37, N-[(3-Fluorophenyl)-methyl]-2-(isopropylsulfanyl)-4-methyl-6-morpholin-4-yl-pyridine-3-carboxylic acid amide] | 148% | 99 nM |
| COc1nc(N2CCOCC2)cc(C)c1C(=O)NCc1ccc(F)cc1 [Example 39, N-[(4-Fluorophenyl)-methyl]-2-methoxy-4-methyl-6-morpholin-4-yl-pyridine-3-carboxylic acid amide] | 143% | 645 nM |
| CCSc1nc(N2CCC(OC)CC2)cc(C)c1C(=O)NCc1cccc(F)c1 [Example 49, 2-Ethylsulfanyl-N-[(3-fluorophenyl)-methyl]-6-(4-methoxy-piperidin-1-yl)-4-methyl-pyridine-3-carboxylic acid amide] | 143% | 1460 nM |
| CCSc1nc(N2CCOCC2)cc(C)c1C(=O)NCc1ccccc1-c1ccccc1 [Example 50, 2-Ethylsulfanyl-4-methyl-6-morpholin-4-yl-N-[(2-phenyl-phenyl)-methyl]-pyridine-3-carboxylic acid amide] | -97% | 63 nM |
| CCSc1nc(N(C)Cc2ccc(F)cc2)cc(C)c1C(=O)NCc1cccc(F)c1 [Example 52, 2-Ethylsulfanyl-N-[(3-fluorophenyl)-methyl]-6-[(4-fluorophenyl)-methyl-methyl-amino]-4-methyl-pyridine-3-carboxylic acid amide] | 122% | 235 nM |
| CCCSc1nc(N2CCOCC2)cc(C)c1C(=O)NCc1cccc(F)c1 [Example 56, N-[(3-Fluorophenyl)-methyl]-4-methyl-6-morpholin-4-yl-2-(propylsulfanyl)-pyridine-3-carboxylic acid amide] | 167% | 77 nM |
| CCCCSc1nc(N2CCOCC2)cc(C)c1C(=O)NCc1cccc(F)c1 [Example 57, 2-(Butylsulfanyl)-N-[(3-fluorophenyl)-methyl]-4-methyl-6-morpholin-4-yl-pyridine-3-carboxylic acid amide] | 169% | 47 nM |

The remaining lines, values ahead:

| Emax | EC50 | Compound |
| --- | --- | --- |
| 169% | 571 nM | CCSc1nc(N2CCOCC2)cc(C)c1C(=O)NCCC(C)C [Example 42, 2-Ethylsulfanyl-4-methyl-N-(3-methyl-butyl)-6-morpholin-4-yl-pyridine-3-carboxylic acid amide] |
| 189% | 679 nM | CCSc1nc(N2CCOCC2)cc(C)c1C(=O)NCC1CCCC1 [Example 43, N-(Cyclopentyl-methyl)-2-ethylsulfanyl-4-methyl-6-morpholin-4-yl-pyridine-3-carboxylic acid amide] |
| 116% | 87 nM | CCSc1nc(N2CCOCC2)cc(C)c1C(=O)NCCC1CCCC1 [Example 44, N-(2-Cyclopentyl-ethyl)-2-ethylsulfanyl-4-methyl-6-morpholin-4-yl-pyridine-3-carboxylic acid amide] |
| 151% | 3140 nM | CCSc1nc(N2CCOCC2)cc(C)c1C(=O)NCc1cccc(F)n1 [Example 45, 2-Ethylsulfanyl-N-[(6-fluoro-pyridin-2-yl)-methyl]-4-methyl-6-morpholin-4-yl-pyridine-3-carboxylic acid amide] |
| 143% | 4830 nM | CCSc1nc(N2CCOCC2)cc(C)c1C(=O)NCc1ccc(F)cn1 [Example 46, 2-Ethylsulfanyl-N-[(5-fluoro-pyridin-2-yl)-methyl]-4-methyl-6-morpholin-4-yl-pyridine-3-carboxylic acid amide] |
| 119% | 2610 nM | CCSc1nc(N2CCOCC2)cc(C)c1C(=O)NCC(C)(C)C [Example 47, N-(2,2-Dimethyl-propyl)-2-ethylsulfanyl-4-methyl-6-morpholin-4-yl-pyridine-3-carboxylic acid amide] |
| -84% | 541 nM | CCSc1nc(N2CCOCC2)cc(C)c1C(=O)NCc1ccccc1C(F)(F)F [Example 51, 2-Ethylsulfanyl-4-methyl-6-morpholin-4-yl-N-[[2-(trifluoromethyl)-phenyl]methyl]-pyridine-3-carboxylic acid amide] |
| 191% | 248 nM | CCSc1nc(N2CCOCC2)cc(C)c1C(=O)NCCCc1ccccc1 [Example 53, 2-Ethylsulfanyl-4-methyl-6-morpholin-4-yl-N-(3-phenyl-propyl)-pyridine-3-carboxylic acid amide] |
| 103% | 2120 nM | CCSc1nc(N2CCOCC2)cc(C)c1C(=O)NCCc1ccccc1 [Example 54, 2-Ethylsulfanyl-4-methyl-6-morpholin-4-yl-N-phenethyl-pyridine-3-carboxylic acid amide] |
| 162% | 260 nM | CCSc1nc(N2CCOCC2)cc(C)c1C(=O)NCc1ccccc1 [Example 55, N-Benzyl-2-ethylsulfanyl-4-methyl-6-morpholin-4-yl-pyridine-3-carboxylic acid amide] |
